Source: patent publication US11912682B2, “Isoindolinone compounds” (Monte Rosa Therapeutics, Inc., priority 2021, dated 2024)
Like-named read-outs stand apart in the source and are kept apart here.

Tests used:
[1] = target: Full length wild-type cereblon CRBN (Homo sapiens (Human), UniProt Q96SW2); test: fluorescence polarization (FP) assay, cereblon binding
Text: Compound activity was monitored in a fluorescence polarization (FP) homogeneous assay using 1-[5-({2-[2-(2-{[2-(2,6-dioxopiperidin-3-yl)-1,3-dioxo-2,3-dihydro-1H-isoindol-4-yl]oxy}acetamido)ethoxy]ethyl}carbamoyl)pentyl]-3,3-dimethyl-2-[(1E,3E)-5-[(2E)-1,3,3-trimethyl-5-sulfo-2,3-dihydro-1H-indol-2-ylidene]penta-1,3-dien-1-yl]-3H-indol-1-ium-5-sulfonate as a fluorescent probe. Unless otherwise stated, all reagents were purchased from Sigma Aldrich. […] Full length wild-type cereblon CRBN (80.0 nM, 10 μL) was incubated in assay buffer containing 20 mM HEPES (pH 8.0), […], 0.5 mM TCEP and 0.05% Tween 20 in the presence or absence of compound (300 nL). Inhibitors were stored as 10 mM DMSO stocks in an inert environment (low humidity, dark, low oxygen, room temperature) using the Storage Pod System. […] Following incubation at room temperature for 30 min, the assay was initiated by dispensing the probe to a final concentration of 5 nM (2.5 nL of a 20 μM stock) using the Echo ESXX. […] The FP signal was subsequently normalized to the no-compound control (i.e., DMSO). Analysis and IC50 values were derived using Dotmatics (Dotmatics UK) software.

GSPT1 = GSPT1 (Homo sapiens (Human), UniProt P15170+Q96SW2); test: immunofluorescence assay for GSPT1 degradation in CAL-51 cells (Example 4); assay type: cell-based
Experimental: The representative compounds were tested in an immunofluorescence assay for their activity to bind to degrade GSPT1. CAL-51 cells were purchased from DSMZ (cat. Number ACC302), sub-cultured in 90% Dulbecco's MEM (4.5 g/L glucose, Gibco 11965) +10% heat inactivated FBS (BioConcept, 2-01F136I) and incubated at 37° C., 5% CO2. For the assay, imaging microtiterplate Cell Carrier 96 Ultra (Perkin Elmer 6055302) were pre-coated with Fibronectin (Sigma F085, 30 μl at 0.2 μg/ml) in PBS (100 μl, Gibco 14190) for 45 min at room temperature, rinsed with PBS and CAL-51 cells (30 K cells/well) were plated and let to adhere overnight. Cells were treated with compounds typically using a serial dilution ranging from 30 μM to 0.1 nM for 6 hours. Compounds were stored at 10 mM DMSO stocks. Vehicle (DMSO), positive (CC-885, 10 μM) and rescue controls (positive control plus 0.2 μM bortezomib) were also included atthis stage. Cells were subsequently rinsed with PBS and fixed in 10% Formalin solution (50 μl, Sigma HT5011)) for 20 mins at room temperature. Following three consecutive PBS washes (100 μl), cells were permeabilized in 0.1% Triton X-100 in PBS (Sigma 93443, 50 μl) for 15 mins at room temperature. Following three further PBS washes, 50 μl blocking buffer (1% BSA, Sigma A4503, in PBS) was added for 45 min for signal-to-noise reduction.
Primary antibody (human GSPT1, Sigma HPA052488) was diluted in blocking buffer (dil.1/300, 35 μl/well) and incubated with the cells overnight at 4° C. After three PBS washes, Alexa-fluor 488 coupled secondary antibodies (Invitrogen, A32731, dil.1/1000), Alexa-fluor 647-Phalloidin (Invitrogen, A22287, dil.1/200) and DAPI (Thermo, #62248, dil.1/1000) were diluted in blocking buffer and incubated with the samples for 2 hours at room temperature. After three final PBS washes, samples were conserved in 100 μl PBS in the dark, until measurement. Image acquisition was performed on the Operetta High-Content Imager (Perkin-Elmer). Fluorescence intensity of Alexa-Fluor 488 (GSPT1), Alexa-Fluor 647 (Actin) and DAPI (Nucleus) were measured. For the determination of GSPT1 DC50 values, a custom algorithm implemented in the PerkinElmer image analysis software Harmony-Acapella® was developed. After user-defined setting of adjustment parameters, the analysis was run identically without human intervention for all image fields. DAPI staining of the nuclei was used to determine the location of cells using standard nuclei detection modules. Segmentation artifacts were removed by threshold-based filters for area, roundness and intensity. The outline of the cells was determined analogously from the sum of the normalized, smoothed DAPI and Actin channel, starting from each nucleus. The Alexa-Fluor 488 (GSPT1) signal intensity in each cell was finally measured, in order to obtain a Mean intensity per cell. GSPT1 degradation (DC50) was calculated after normalization to controls and data import in CDD vault Database, using non-linear regression.

[2] = 6 hours, read-out: Activity for GSPT1 degradation, Code (DC50)
[3] = GSPT1 degradation, read-out: DC50 value

Sequence of GSPT1 (P15170 whole entry): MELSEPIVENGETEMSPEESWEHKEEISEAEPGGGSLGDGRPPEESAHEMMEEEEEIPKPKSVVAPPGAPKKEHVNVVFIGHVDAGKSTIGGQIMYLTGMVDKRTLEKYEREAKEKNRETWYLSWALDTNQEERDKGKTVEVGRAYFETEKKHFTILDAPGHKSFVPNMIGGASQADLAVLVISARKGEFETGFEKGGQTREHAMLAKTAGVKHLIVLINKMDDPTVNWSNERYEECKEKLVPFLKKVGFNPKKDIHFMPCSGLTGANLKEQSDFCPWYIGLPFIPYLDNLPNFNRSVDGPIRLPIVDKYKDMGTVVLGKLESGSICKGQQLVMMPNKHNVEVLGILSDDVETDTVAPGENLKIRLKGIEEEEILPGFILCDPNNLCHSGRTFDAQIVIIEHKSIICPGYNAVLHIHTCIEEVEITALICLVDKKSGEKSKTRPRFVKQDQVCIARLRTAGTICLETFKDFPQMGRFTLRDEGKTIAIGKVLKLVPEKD
Sequence of GSPT1 (Q96SW2 whole entry): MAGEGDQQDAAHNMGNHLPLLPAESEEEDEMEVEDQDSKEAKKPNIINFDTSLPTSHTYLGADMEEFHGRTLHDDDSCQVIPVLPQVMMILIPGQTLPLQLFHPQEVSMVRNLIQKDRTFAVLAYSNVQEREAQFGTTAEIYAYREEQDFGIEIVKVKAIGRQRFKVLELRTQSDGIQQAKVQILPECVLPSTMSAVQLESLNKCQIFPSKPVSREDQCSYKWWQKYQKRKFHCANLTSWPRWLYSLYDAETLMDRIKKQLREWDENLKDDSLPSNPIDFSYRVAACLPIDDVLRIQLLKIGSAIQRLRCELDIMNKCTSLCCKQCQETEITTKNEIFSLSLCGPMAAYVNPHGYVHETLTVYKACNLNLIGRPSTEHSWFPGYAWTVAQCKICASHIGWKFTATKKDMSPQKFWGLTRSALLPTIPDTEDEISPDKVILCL
Sequence of GSPT1 (Q16531 2-1140 partner): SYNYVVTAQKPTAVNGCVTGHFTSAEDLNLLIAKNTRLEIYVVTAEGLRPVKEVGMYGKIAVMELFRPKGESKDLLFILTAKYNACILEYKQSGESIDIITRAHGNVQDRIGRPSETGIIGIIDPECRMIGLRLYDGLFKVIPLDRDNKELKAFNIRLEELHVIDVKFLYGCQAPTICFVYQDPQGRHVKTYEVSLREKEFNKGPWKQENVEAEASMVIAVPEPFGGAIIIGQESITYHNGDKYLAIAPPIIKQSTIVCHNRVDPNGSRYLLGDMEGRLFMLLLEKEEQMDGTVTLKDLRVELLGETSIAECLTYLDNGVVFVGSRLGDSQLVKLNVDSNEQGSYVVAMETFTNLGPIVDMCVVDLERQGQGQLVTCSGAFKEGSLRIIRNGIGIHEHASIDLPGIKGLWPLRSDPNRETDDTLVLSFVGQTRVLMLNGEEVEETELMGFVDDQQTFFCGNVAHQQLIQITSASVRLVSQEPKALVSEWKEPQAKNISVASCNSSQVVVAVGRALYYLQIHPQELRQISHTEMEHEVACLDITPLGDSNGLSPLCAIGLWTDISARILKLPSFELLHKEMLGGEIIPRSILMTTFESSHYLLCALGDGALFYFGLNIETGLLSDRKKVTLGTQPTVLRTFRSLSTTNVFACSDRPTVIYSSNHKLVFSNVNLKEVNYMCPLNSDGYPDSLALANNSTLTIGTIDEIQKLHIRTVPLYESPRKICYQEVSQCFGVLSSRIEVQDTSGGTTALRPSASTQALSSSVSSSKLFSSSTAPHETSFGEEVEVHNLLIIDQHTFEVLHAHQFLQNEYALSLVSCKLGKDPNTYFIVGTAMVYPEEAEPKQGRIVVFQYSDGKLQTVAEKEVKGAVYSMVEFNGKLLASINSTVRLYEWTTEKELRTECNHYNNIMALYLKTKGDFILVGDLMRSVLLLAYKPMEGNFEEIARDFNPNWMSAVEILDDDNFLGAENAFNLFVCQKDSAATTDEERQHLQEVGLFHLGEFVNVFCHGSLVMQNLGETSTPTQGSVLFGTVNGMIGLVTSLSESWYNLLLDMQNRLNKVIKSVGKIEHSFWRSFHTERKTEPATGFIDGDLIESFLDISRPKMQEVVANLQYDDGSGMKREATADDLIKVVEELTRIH
Sequence of Full length wild-type cereblon CRBN (Q96SW2 whole entry): as the sequence (Q96SW2 whole entry) above

Row | Structure (SMILES) | IC50 ([1]; read-out: IC50 value) | DC50 (GSPT1; [2]) | IC50 ([1]; read-out: rFP IC50) | DC50 (GSPT1; [3])
1 | O=C1CCC(N2Cc3ccc(COC(=O)Nc4cnc(N5CCCCC5)nc4)cc3C2=O)C(=O)N1 (centres unmarked) [Compound 64] | < 1100 nM | 30 to 300 nM | – | –
2 | O=C1CCC(N2Cc3ccc(COC(=O)Nc4ccc(N5CC6CCC(C5)O6)nc4)cc3C2=O)C(=O)N1 (centres unmarked) [Compound 65] | – | > 300 nM | < 500 nM | –
3 | O=C1CCC(N2Cc3ccc(COC(=O)Nc4ccc5c(c4)CCO5)cc3C2=O)C(=O)N1 (centres unmarked) [Compound 66] | – | 30 to 300 nM | < 500 nM | –
4 | O=C1CCC(N2Cc3ccc(COC(=O)Nc4ccc5c(c4)CCCO5)cc3C2=O)C(=O)N1 (centres unmarked) [Compound 67] | < 1100 nM | 30 to 300 nM | – | –
5 | Cc1c(Cl)cc(NC(=O)OCc2ccc3c(c2)C(=O)N(C2CCC(=O)NC2=O)C3)cc1OC1CCN(C)C1 (centres unmarked) [Compound 68] | < 1100 nM | < 30 nM | – | ≤ 30 nM
6 | CC1CCN(c2ccc(NC(=O)OCc3ccc4c(c3)C(=O)N(C3CCC(=O)NC3=O)C4)cn2)C1 (centres unmarked) [Compound 69] | – | < 30 nM | < 500 nM | ≤ 30 nM
7 | Cc1c(Cl)cc(NC(=O)OCc2ccc3c(c2)C(=O)N(C2CCC(=O)NC2=O)C3)cc1OCC1CCN(C)C1 (centres unmarked) [Compound 70] | – | 30 to 300 nM | < 500 nM | –
8 | O=C1CCC(N2Cc3ccc(COC(=O)Nc4cnc(N5CCCCC5)c(F)c4)cc3C2=O)C(=O)N1 (centres unmarked) [Compound 72] | < 1100 nM | 30 to 300 nM | – | –
9 | O=C1CCC(N2Cc3ccc(COC(=O)Nc4ccc(N5CCCC(F)(F)C5)nc4)cc3C2=O)C(=O)N1 (centres unmarked) [Compound 73] | – | 30 to 300 nM | < 500 nM | –
10 | CC1CCCN1c1ccc(NC(=O)OCc2ccc3c(c2)C(=O)N(C2CCC(=O)NC2=O)C3)cn1 (centres unmarked) [Compound 74] | – | < 30 nM | < 500 nM | ≤ 30 nM
11 | O=C1CCC(N2Cc3ccc(COC(=O)Nc4ccc(N5CCCCC5)nn4)cc3C2=O)C(=O)N1 (centres unmarked) [Compound 75] | – | 30 to 300 nM | < 500 nM | –

Second part, the molecule after the results:

Row | IC50 ([1]; read-out: IC50 value) | DC50 (GSPT1; [2]) | IC50 ([1]; read-out: rFP IC50) | DC50 (GSPT1; [3]) | Structure (SMILES)
12 | < 1100 nM | 30 to 300 nM | – | – | O=C1CCC(N2Cc3ccc(COC(=O)Nc4ccc(N5CCOCC5)nc4)cc3C2=O)C(=O)N1 (centres unmarked) [Compound 76]
13 | < 1100 nM | < 30 nM | – | ≤ 30 nM | CC1CCCCN1c1ccc(NC(=O)OCc2ccc3c(c2)C(=O)N(C2CCC(=O)NC2=O)C3)cn1 (centres unmarked) [Compound 77]
14 | – | 30 to 300 nM | < 500 nM | – | O=C1CCC(N2Cc3ccc(COC(=O)Nc4ccc(N5CCC(F)(F)CC5)nc4)cc3C2=O)C(=O)N1 (centres unmarked) [Compound 78]
15 | – | 30 to 300 nM | < 500 nM | – | O=C1CCC(N2Cc3ccc(COC(=O)Nc4ccc(C5CC5)nc4)cc3C2=O)C(=O)N1 (centres unmarked) [Compound 80]
16 | – | 30 to 300 nM | < 500 nM | – | O=C1CCC(N2Cc3ccc(COC(=O)Nc4ccc(C5COC5)cc4)cc3C2=O)C(=O)N1 (centres unmarked) [Compound 81]
17 | – | > 300 nM | < 500 nM | – | CN1CCN(c2ccc(NC(=O)OCc3ccc4c(c3)C(=O)N(C3CCC(=O)NC3=O)C4)cn2)CC1 (centres unmarked) [Compound 82]
18 | < 1100 nM | < 30 nM | – | ≤ 30 nM | CC1(C)COc2cc(NC(=O)OCc3ccc4c(c3)C(=O)N(C3CCC(=O)NC3=O)C4)ccc21 (centres unmarked) [Compound 83]
19 | – | < 30 nM | < 500 nM | ≤ 30 nM | O=C1CCC(N2Cc3ccc(COC(=O)Nc4ccc(-c5ccccc5F)nc4)cc3C2=O)C(=O)N1 (centres unmarked) [Compound 84]
20 | – | < 30 nM | > 1700 nM | ≤ 30 nM | O=C1CCC(N2Cc3ccc(COC(=O)Nc4cnc(-c5ccccc5)c(F)c4)cc3C2=O)C(=O)N1 (centres unmarked) [Compound 85]
